Assay results from US9757375B2, “Compounds that inhibit human DNA ligases and methods of treating cancer” (University of Maryland, Baltimore, priority 2007, dated 2017).

Tests used:
[1] = test system: HeLa cell extract; experiment: Cell extract assay with 5′-flap substrate (DNA replication and long patch base excision repair); assay type: biochemical, human; conditions: for Cell Extract 100 (μM): BER inhibited: kind of BER not given; for final ligation step of the flap substrate repair reaction / flap removal by FEN-1: HeLa extract, 100 μmol/L (also 25 μM in the source), FIG. 4A
Procedure: Extracts were prepared from human cervical cancer HeLa cells as described previously (27, 31). For base excision repair (BER) assays, the extraction buffer contained 100 mmol/L of KCl, whereas for nonhomologous end-joining (NHEJ) assays, extraction buffer contained 400 mmol/L of KCl. Where indicated, DNA ligases were immunodepleted from the extracts as described (32) using protein A or G Sepharose beads (GE Healthcare) and anti-Lig1, anti-LigIII (GeneTex), or anti-LigIV (ABCAM) antibodies. Depletion was confirmed by immunoblotting.
A labeled 5′-flap substrate (0.1 pmol; (31)) was incubated with 20 μg of extract in the absence or presence of ligase inhibitors (100 μmol/L) at 25° C. for 5 min in ligation buffer (final volume, 50 μL). For short patch BER, a linear duplex containing a single uracil residue was preincised by treatment with uracil DNA glycosylase and APE1 (both from NEB) to generate a strand break with 3′ hydroxyl and 5′ deoxyribose phosphate termini. Reactions (50 μL) containing 0.3 pmol of the incised DNA substrate, 10 μCi of [α^32P]dTTP, and 20 μg of extract either in the absence or presence of ligase inhibitors (100 μmol/L) were incubated at 25° C. for 2 min in ligation buffer. After separation by denaturing polyacrylamide gel electrophoresis, labeled oligonucleotides were detected in the dried gel by phosphorImager analysis (Molecular Dynamics).
Next we used published cell extract assays (16,27,28) that measure different DNA replication and repair transactions to confirm the specificity of the DNA ligase inhibitors. FIG. 4A, the flap substrate (0.1 pmol) was incubated with cell extract (20 μg) in the absence (lane 2, Mock) or presence of 100 μmol/L, of L189 (lane 3), L67 (lane 4), or L82 (lane 5). hLigI (lane 6, I-dp) and hLigIIIa (lane 7, III-dp) were immunodepleted from the cell extracts prior to incubation with the DNA substrate. Lane 1, DNA substrate alone (Sub). The positions of the DNA substrate (24-mer), cleaved product (18-mer), and fully repaired product (43-mer). The flap substrate shown in FIG. 4A corresponds to an intermediate generated on the lagging strand during DNA replication and in the long patch subpathway of base excision repair. Previously it has been shown that DNA ligase I completes these two DNA transactions after removal of the flap by FEN-1 (16,28). A cell extract from the human cervical cancer cell line HeLa was incubated with the indicated labeled flap substrate that mimics a common intermediate in DNA replication and long patch base excision repair in the absence or presence of Compounds 67, 82, 184 and 189 (25 μM). After separation by denaturing gel electrophoresis, labeled fragments corresponding to the DNA substrate, cleaved product and fully repaired product were detected by phosphorimaging (28).

[2] = test system: HCT116 and MCF10A cells; experiment: Cell proliferation screen, result stated for one or both cell lines; assay type: cell-based; conditions: Homo sapiens, read-out: IC50 of inhibition of proliferation
[3] = test system: Human DNA ligases I, III and IV and T4 DNA ligase; experiment: Step 3 of the ligation reaction: ligation of preadenylated nick by non-adenylated ligase; assay type: biochemical; conditions: for Mechanism: ligation step inhibited (3rd step): Table 5A
Procedure: To analyze step 3 of the ligation reaction, an adenylated labeled version of the 18-mer was prepared as described (24). The DNA substrate containing a preadenylated nick (0.5 pmol) and hLigI (0.05 pmol), hLigIIIβ (0.05 pmol), hLigIV/XRCC4 (0.1 pmol), or T4 DNA ligase (0.05 pmol) were incubated in ligation buffer without ATP, either in the presence or absence of the ligase inhibitors (100 μmol/L). Reactions were stopped by the addition of an equal volume of gel loading dye (95% formamide, 0.05% bromophenol blue, and 0.05% xylene cyanol). After heating at 95° C. for 5 min, DNA was separated by denaturing polyacrylamide gel electrophoresis. Labeled oligonucleotides were detected and quantitated in the dried gel by phosphorImager analysis (Molecular Dynamics).
Since the final two steps of the ligation reaction involve interactions with DNA, we examined the effects of the ligase inhibitors on the second (FIG. 3B) (The labeled ligase-adenylate form of human DNA ligases I, III and IV and T4 DNA ligase were incubated with a linear DNA substrate containing a single non-ligatable nick in the absence or presence of compounds 67, 82 and 189 (100 μM). After separation by denaturing gel electrophoresis, the labeled DNA-AMP complex was detected by phosphorimaging (26)) and third steps (FIG. 3C) of the ligation reaction using established assays (25,26) (Non-adenylated human DNA ligases I, III and IV and T4 DNA ligase were incubated with labeled DNA-AMP in the absence or presence of compounds 67, 82 and 189 (100 μM). After separation by denaturing gel electrophoresis, labeled ligated DNA was detected by phosphorimaging (25)).

With Cc1c(Br)cc(NCC(=O)N/N=C\c2cc([N+](=O)[O-])ccc2O)cc1Br [Compound 67] the “Cell Extract 100 (μM): BER inhibited” value [1] was “BER”, the “final ligation step of the flap substrate repair reaction” value (“final ligation step” below) [1] was “inhibited the final ligation step of the repair reaction” and the “flap removal by FEN-1” value [1] was “had no effect on flap removal by FEN-1”. The IC50 [2] was under 20 µM and the “Mechanism: ligation step inhibited (3rd step)” value [3] was 3rd step.
O=c1[nH]ncc(N/N=C\c2ccc(O)c([N+](=O)[O-])c2)c1Cl [Compound 82] was tested, and the “Cell Extract 100 (μM): BER inhibited” value [1] was “BER”, the “final ligation step” value [1] was “inhibited the final ligation step of the repair reaction” and the “flap removal by FEN-1” value [1] was “had no effect on flap removal by FEN-1”. For the same molecule, the “inhibition of step 3 of the ligation reaction” value ([3]; 100 μM, FIG. 3C) was “inhibit step 3” and the “Mechanism: ligation step inhibited (3rd step)” value [3] was 3rd step.
O=C(Cn1cnc([N+](=O)[O-])n1)N/N=C/c1ccc(O)cc1O [Compound 151] was tested, and the “Cell Extract 100 (μM): BER inhibited” value [1] was “BER” and the IC50 [2] was under 20 µM.
O=C1Nc2ccccc2Oc2cc([N+](=O)[O-])cc([N+](=O)[O-])c21 [Compound 180] showed an IC50 [2] of under 20 µM.
In the case of Nc1nc(S)nc(O)c1/N=C/c1ccccc1 [Compound 189], the “Cell Extract 100 (μM): BER inhibited” value [1] is reported as “BER”, the “final ligation step” value [1] is reported as “inhibited the final ligation step of the repair reaction” and the “flap removal by FEN-1” value [1] is reported as “had no effect on flap removal by FEN-1”. For the same molecule, the “Mechanism: ligation step inhibited (3rd step)” value [3] was 3rd step.
Cc1oc(C(=O)O)cc1CSCc1cc(C(=O)O)c(C)o1 [Compound 197] was tested, and the “Mechanism: ligation step inhibited (3rd step)” value [3] was 3rd step.
